Source: patent publication US10208083B2 (priority 2015, dated 2019)
Marks after values point to notes of the source that are not given here.

Key:
UWB1.289 = experiment: cells; format: cell-based, human; set-up: TGI: unit not given here; conditions: for GI50 / IC50: Homo sapiens, UWB1289, 48 h
UWB1.289 + BRCA1 = experiment: cells; format: cell-based, human; set-up: TGI: unit not given here; conditions: for GI50 / IC50: Homo sapiens, UWB1289, 48 h
OVCAR-3 = experiment: cells; format: cell-based, human; set-up: TGI: unit not given here; conditions: for GI50 / IC50: Homo sapiens, OVCAR-3, 48 h
SKOV-3 = experiment: cells; format: cell-based, human; set-up: TGI: unit not given here; conditions: for GI50 / IC50: Homo sapiens, SK-OV-3, 48 h
MCF-7 = experiment: cells; format: cell-based, human; set-up: TGI: unit not given here; conditions: for GI50 / IC50: Homo sapiens, MCF7, 48 h
T-47D = experiment: cells; format: cell-based, human; set-up: TGI: unit not given here; conditions: for GI50 / IC50: Homo sapiens, T47D, 48 h
PC-3 = experiment: cells; format: cell-based, human; set-up: TGI: unit not given here; conditions: for GI50 / IC50: Homo sapiens, PC-3, 48 h
MOLT-4 = experiment: cells; format: cell-based, human; set-up: TGI: unit not given here; conditions: for GI50 / IC50: Homo sapiens, MOLT-4, 48 h
K-562 = experiment: cells; format: cell-based, human; set-up: TGI: unit not given here; conditions: for GI50 / IC50: Homo sapiens, K562, 48 h
[1] = system: murine P388 lymphocytic leukemia; set-up: species or system mice; conditions: mouse, in vivo, ip; also: test concentration or dose not given here
[2] = system: SCOV-3 human ovarian cancer; conditions: in vivo; as to OS % on Day-70: test concentration or dose not given here; as to PFS % on Day-70: test concentration or dose not given here
C57Bl/6 mice = conditions: female, C57Bl/6, mouse, in vivo, ip
in vivo = conditions: female, C57Bl/6, mouse, ip

| Structure (SMILES) | TGI (UWB1.289) | GI50 (UWB1.289) [µM] | IC50 (UWB1.289) [µM] | TGI (UWB1.289 + BRCA1) | GI50 (UWB1.289 + BRCA1) [µM] | IC50 (UWB1.289 + BRCA1) [µM] | TGI (OVCAR-3) | GI50 (OVCAR-3) [µM] | IC50 (OVCAR-3) [µM] | TGI (SKOV-3) | GI50 (SKOV-3) [µM] | IC50 (SKOV-3) [µM] | TGI (MCF-7) | GI50 (MCF-7) [µM] | IC50 (MCF-7) [µM] | TGI (T-47D) | GI50 (T-47D) [µM] | IC50 (T-47D) [µM] | TGI (PC-3) | GI50 (PC-3) [µM] | other results |
| --- | --- | --- | --- | --- | --- | --- | --- | --- | --- | --- | --- | --- | --- | --- | --- | --- | --- | --- | --- | --- | --- |
| C[C@]12CC[C@H](OC(=O)CCOc3ccc(N(CCCl)CCCl)cc3)CC1=CC(=O)N[C@@H]1[C@@H]2CC[C@]2(C)C(=O)CC[C@@H]12 [Compound 18] | 42 | 13 | 70 | 38 | 20 | 69 | 47 | 20 | 70 | 46 | 24 | 68 | 46 | 21 | 79 | 32 | 14 | 72 | 36 | 23 | IC50 (PC-3): 70 µM; TGI (MOLT-4): 38; GI50 (MOLT-4): 5 µM; IC50 (MOLT-4): 76 µM; TGI (K-562): 38; GI50 (K-562): 6 µM; IC50 (K-562): 87 µM; Cures [1]: 0/6; MST ± SD [1]: 34 days; T/C % [1]: 378* %; OS % on Day-70 [2]: 100%; PFS % on Day-70 [2]: 80%; TI % at Day-35 [2]: 44%; LD10 (C57Bl/6 mice): 85 mg/kg; LD50 (in vivo): 110 mg/kg |
| C[C@]12CC(=O)[C@H]3[C@@H](CCC4=CC(=O)NCC[C@@]43C)[C@@H]1CC[C@@H]2OC(=O)CCOc1ccc(N(CCCl)CCCl)cc1 [Compound 11] | 20 | 6 | 25 | 31 | 22 | 42 | 18 | 8 | 22 | 32 | 20 | 44 | 68 | 25 | > 100 | 59 | 26 | 98 | 44 | 29 | IC50 (PC-3): 68 µM; TGI (MOLT-4): 20; GI50 (MOLT-4): 1.5 µM; IC50 (MOLT-4): 45 µM; TGI (K-562): 35; GI50 (K-562): 2 µM; IC50 (K-562): 55 µM; Cures [1]: 1/6; MST ± SD [1]: 56 days; T/C % [1]: 622* %; OS % on Day-70 [2]: 100%; PFS % on Day-70 [2]: 100%; TI % at Day-35 [2]: 73%; LD10 (C57Bl/6 mice): 100 mg/kg; LD50 (in vivo): 130 mg/kg |
| C[C@]12CC[C@@H]3c4ccc(OC(=O)CCOc5ccc(N(CCCl)CCCl)cc5)cc4CC[C@H]3[C@@H]1CCC(=O)N2 [Compound 6] | 20 | 6 | 44 | 66 | 18 | 88 | 40 | 30 | 56 | 76 | 12 | > 100 | 36 | 15 | 65 | 30 | 10 | 55 | 29 | 16 | IC50 (PC-3): 51 µM; TGI (MOLT-4): 28; GI50 (MOLT-4): 5 µM; IC50 (MOLT-4): 50 µM; TGI (K-562): 30; GI50 (K-562): 5 µM; IC50 (K-562): 50 µM; Cures [1]: 0/6; MST ± SD [1]: 36 days; T/C % [1]: 400* %; OS % on Day-70 [2]: 100%; PFS % on Day-70 [2]: 100%; TI % at Day-35 [2]: 56%; LD10 (C57Bl/6 mice): 80 mg/kg; LD50 (in vivo): 100 mg/kg |
| C[C@]12CC[C@H]3[C@@H](CCC4=CC(=O)NCC[C@@]43C)[C@@H]1CC[C@@H]2OC(=O)CCOc1ccc(N(CCCl)CCCl)cc1 [Compound 3] | 8 | 3 | 20 | 25 | 12 | 40 | 32 | 21 | 42 | 52 | 18 | 76 | 38 | 17 | 70 | 25 | 10 | 66 | 30 | 22 | IC50 (PC-3): 56 µM; TGI (MOLT-4): 27; GI50 (MOLT-4): 3 µM; IC50 (MOLT-4): 65 µM; TGI (K-562): 30; GI50 (K-562): 3 µM; IC50 (K-562): 71 µM; Cures [1]: 0/6; MST ± SD [1]: 39 days; T/C % [1]: 433* %; OS % on Day-70 [2]: 100%; PFS % on Day-70 [2]: 100%; TI % at Day-35 [2]: 62%; LD10 (C57Bl/6 mice): 130 mg/kg; LD50 (in vivo): 150 mg/kg |
| C[C@]12CC[C@H](OC(=O)Cc3ccc(N(CCCl)CCCl)cc3)C[C@@H]1CC[C@@H]1[C@@H]2CC[C@@]2(C)NC(=O)CC[C@@H]12 [ASE, 3beta-hydroxy-13alpha-amino-13,17-seco-5alpha-androstan-17-oic-13,17-lactam-[p-[bis (2-chloroethyl)amino]phenyl]acetate, reference compound] | 30 | 16 | 54 | >100 | 80 | > 100 | 52 | 36 | 64 | 92 | 45 | > 100 | 57 | 29 | 96 | 47 | 22 | 92 | 49 | 34 | IC50 (PC-3): 89 µM; TGI (MOLT-4): 56; GI50 (MOLT-4): 8 µM; IC50 (MOLT-4): 93 µM; TGI (K-562): 78; GI50 (K-562): 9 µM; IC50 (K-562): > 100 µM; Cures [1]: 0/6; MST ± SD [1]: 24 days; T/C % [1]: 267* %; OS % on Day-70 [2]: 80%; PFS % on Day-70 [2]: 40%; TI % at Day-35 [2]: 34%; LD10 (C57Bl/6 mice): 30 mg/kg; LD50 (in vivo): 50 mg/kg |
| C[C@]12CC(=O)N[C@H]3[C@@H](CCC4=CC(=O)NCC[C@@]43C)[C@@H]1CC[C@@H]2OC(=O)CCOc1ccc(N(CCCl)CCCl)cc1 [Compound 16] | 28 | 3 | 40 | 32 | 12 | 50 | 20 | 9 | 35 | 46 | 20 | 70 | 36 | 15 | 65 | 30 | 10 | 55 | 29 | 16 | IC50 (PC-3): 51 µM; TGI (MOLT-4): 36; GI50 (MOLT-4): 4 µM; IC50 (MOLT-4): 56 µM; TGI (K-562): 47; GI50 (K-562): 7 µM; IC50 (K-562): 65 µM; Cures [1]: 0/6; MST ± SD [1]: 44 days; T/C % [1]: 489* %; OS % on Day-70 [2]: 100%; PFS % on Day-70 [2]: 100%; TI % at Day-35 [2]: 55%; LD10 (C57Bl/6 mice): 140 mg/kg; LD50 (in vivo): 165 mg/kg |
